Data on two compounds can be found in patent US20030017999A1, “Composition for the prevention and /or treatment of lipid metabolism disorders and allergic forms” (priority 2000, published 2003).

For series [1], the system named is Mitomycin-induced toxicity (leukocyte depletion). Nature of the series: Leukocyte depletion induced by mitomycin C in mice. The class given is in vivo. The following applies: mitomycin C 50 μg/mouse peritoneal for five days, alone or with isovaleryl L-carnitine 30 mg/mouse and/or β-glucan 10 mg/mouse; for No. leukocytes after 5 days: day 5; for No. leukocytes after 10 days: day 10; for No. leukocytes after 12 days: day 12. The procedure:
(§1) In these tests a first group of mice received peritoneal injections of 50 μg/mouse of mitomycin C for five consecutive days. In addition to mitomycin, a second group of animals were also injected with isovaleryl L-carnitine alone (30 mg/mouse), a third group with β-glucan alone (10 mg/mouse) and a fourth group with a combination of the two compounds for five consecutive days. On the fifth, tenth and twelfth day following the start of treatment, the number of leukocytes present in the blood and the mortality rates of the animals were evaluated in both treated and control animals.

Series [2] deals with Mitomycin-induced toxicity (mortality). The series is described as follows: Mortality induced by mitomycin C in mice. The following applies: for % animals surviving after 5 days / % animals surviving after 10 days / % animals surviving after 12 days (survival rate): mitomycin C 50 μg/mouse peritoneal for five days, alone or with isovaleryl L-carnitine 30 mg/mouse and/or β-glucan 10 mg/mouse; for % animals surviving after 5 days: day 5; for % animals surviving after 10 days: day 10; for % animals surviving after 12 days (survival rate): day 12. Format: in vivo. The procedure: Results of Tests Regarding the Immunostimulant and Protective Effect exerted against Mitomycin-induced Toxicity by the Combination of Isovaleryl L-carnitine and β-glucan
as §1

Series [3] deals with human macrophages from bronchoalveolar lavage fluid. Nature of the series: Macrophage stimulation test (phagocytosis and intracellular killing). The class given is cell-based. How it is done: After filtration, centrifuging and gradient separation on Ficoll, the viability of the cells was evaluated with the trypan blue test. Phagocytosis and intracellular killing were calculated according to the method described by […]. Bacterial, 98:996, 1969).

In the case of `CC(C)CC(=O)O[C@H](CC(=O)[O-])C[N+](C)(C)C` [Isovaleryl L-carnitine], in series [1], the “No. leukocytes after 5 days” value was 5,750 ± 310, the “No. leukocytes after 10 days” value is listed as 4,900 ± 220 and the “No. leukocytes after 12 days” value is on record as 3,100 ± 310. In addition, in series [2], the “% animals surviving after 5 days” value turned out to be 50%, the “% animals surviving after 10 days” value stood at 30% and the “% animals surviving after 12 days (survival rate)” value was found to be 15%. In series [3], the “increase in intracellular killing” value was determined as 15% and the “increase in phagocyte activity” value is on record as 10%.

Consider `CO[C@@]12[C@H](COC(N)=O)C3=C(C(=O)C(C)=C(N)C3=O)N1C[C@@H]1N[C@@H]12` [Mitomycin C], for which, in series [1], the “No. leukocytes after 5 days” value is recorded as 5,400 ± 270, the “No. leukocytes after 10 days” value is on record as 3,000 ± 220 and the “No. leukocytes after 12 days” value is on record as 1,100 ± 190. For the same compound, in series [2], the “% animals surviving after 5 days” value stood at 50%, the “% animals surviving after 10 days” value is listed as 20% and the “% animals surviving after 12 days (survival rate)” value was 0%. Also, in series [2] (mitomycin C alone 50 μg/mouse peritoneal for five days, twelfth day), the mortality rate stood at 100%.
